Test results reported in patent publication US20250032658A1, “SYSTEMS AND METHODS FOR NEUTRALIZATION OF AIRBORNE ALLERGENS WITH ORGANIC ACIDS” (The Clorox Company, priority 2023, published 2025).
Like-named read-outs stand apart in the source and are kept apart here.

Legend:
[1] = cited from earlier work
[2] = room temperature and standard pressure; cited from earlier work
[3] = pKa / acid form of lactic acid; assay type: physicochemical; settings: at a pH of 2.2
Source text: In some example embodiments, the pH of the anti-allergen formulations can be kept low. A low pH can enhance the organic acid efficacy (e.g., lactic acid efficacy) in neutralization of airborne allergens. Typically, pH is kept a least 1 unit below pKa of the organic acid to ensure majority (at least 90%) of acid stays in the active (conjugate acid) form. […].

CCCCCC(=O)O [hexanoic acid]
Solubility in water [1]: 1.03 g of compound in 100 g of water | Vapor Pressure [2]: 5.80 Pa

NCC(=O)O [glycine]
Vapor Pressure [2]: 0.000017 Pa

O=C(O)CCCCC(=O)O [adipic acid]
Vapor Pressure [2]: 9.70 Pa

O=C(O)/C=C\C(=O)O [maleic acid]
Solubility in water ([1]; at ~20° C.): 47.88 g of compound in 100 g of water

CC(=O)CCC(=O)O [levulinic acid]
Solubility in water ([1]; at ~20° C.): 79.13 g of compound in 100 g of water | Vapor Pressure [2]: 0.374 Pa

CCCCCCC(=O)O [heptanoic acid]
Solubility in water ([1]; at ~20° C.): 0.2 g of compound in 100 g of water | Vapor Pressure [2]: 1.35 Pa

CC(=O)O [acetic acid]
Vapor Pressure [2]: 2080 Pa

O=C(O)CC(O)C(=O)O (stereo not drawn) [malic acid]
Solubility in water ([1]; at ~20° C.): 64.7 g of compound in 100 g of water | Vapor Pressure [2]: 0.000004 Pa

O=C(O)CC(=O)O [malonic acid]
Vapor Pressure [2]: 0.00049 Pa

O=C(O)CC(O)(CC(=O)O)C(=O)O [citric acid]
Vapor Pressure [2]: 0.000002 Pa

O=C(O)c1ccccc1 [benzoic acid]
Vapor Pressure [2]: 0.11 Pa

CCCCCCCC(=O)O [octanoic acid]
Vapor Pressure [2]: 0.49 Pa

CCC(=O)O [propionic acid]
Vapor Pressure [2]: 390 Pa

O=C(O)CO [glycolic acid]
Vapor Pressure [2]: 0.41 Pa

C/C=C/C=C/C(=O)O [sorbic acid]
Solubility in water ([1]; at ~20° C.): 0.156 g of compound in 100 g of water | Vapor Pressure [2]: 0.018 Pa

CCCC(=O)O [butyric acid]
Vapor Pressure [2]: 100 Pa

CS(=O)(=O)O [methane sulfonic acid]
Solubility in water ([1]; at ~20° C.): 100 g of compound in 100 g of water | Vapor Pressure [2]: 0.048 Pa

O=C(O)/C=C/C(=O)O [fumaric acid]
Solubility in water ([1]; at ~20° C.): 0.7 g of compound in 100 g of water

CC(=O)C(=O)O [pyruvic acid]
Solubility in water ([1]; at ~20° C.): 100 g of compound in 100 g of water | Vapor Pressure [2]: 172 Pa

CCCCC(=O)O [valeric acid]
Solubility in water ([1]; at ~20° C.): 3.75 g of compound in 100 g of water | Vapor Pressure [2]: 100 Pa

CC(O)C(=O)O (stereo not drawn) [lactic acid]
lactic acid in the acidic form [3]: at least 95% | Vapor Pressure [2]: 10.00 Pa
